Where “and” joins values, the source holds several entries; their conditions need not be identical. Equal values may be shown once. Entries after “also recorded” stand apart in the source; their conditions may differ. Read-outs that look alike come from different tables or passages of the source.
Tests used:
[1] = tested on: MRSA; assay: Kirby-Bauer disc diffusion assay; assay type: cell-based, Staphylococcus aureus; settings: Staphylococcus aureus, 24-hour incubation at 37° C.
Method: The susceptibility of MRSA to EIPE-1 was determined by the Kirby-Bauer disc diffusion method. Using a cotton swab applicator, a lawn of the S. aureus clinical isolate was placed onto Mueller Hinton agar plates to cover the entire surface of the plate. Filter discs (size=6 mm) were added onto the bacterial lawn. EIPE-1, DBI, and DMSO (10 μL each) were then added onto the filter discs.
The efficacy of compound EIPE-1 was tested by the Kirby-Bauer disc assay. The Kirby-Bauer disc assay assesses the sensitivity of bacteria to antimicrobial agents. If the bacteria are sensitive to the antimicrobial being tested, then a zone of inhibition of bacterial growth is seen around the filter disc containing the antimicrobial. The Kirby-Bauer disc assay was used to test the antimicrobial efficacy of EIPE-1 against MRSA. EIPE-1 was reconstituted at 1 mg/mL in DMSO and serially diluted (10^−1 to 10^−5) after which 10 μL of each dilution (and DMSO as a solvent control) was added to a separate disc on an LB plate inoculated with a lawn of bacteria. The plates were incubated at 37° C. for 24 h, and the resulting radii zone sizes around each disc were then measured.

[2] = tested on: HeLa cells; assay: Cytotoxicity, LDH leakage assay; assay type: cell-based
Method: HeLa cells were cultured in 96-well plates at 37° C. and 5% CO2 in Roswell Park Memorial Institute (RMPI) 1640 medium with 5% Fetal Bovine Serum (FBS). Once HeLa cells reached 95% confluency, the media was replaced with media containing various concentrations of EIPE-1, DBI or DMSO for 24 hours. Cell cytotoxicity was measured using the lactate dehydrogenase (LDH) leakage assay. Results were compared to maximum values of lysed cells in control wells and were graphed as percent relative cytotoxicity using Prism 5.0.
Host cell cytotoxicity against HeLa cells was examined for both DBI and EIPE-1 (FIG. 2B). LDH release was examined after 24-hour exposure to varying concentrations of DBI, DMSO and EIPE-1. […] Thus, EIPE-1 is relatively safe to use with respect to eukaryotic cells.

[3] = tested on: MRSA; assay: Scanning electron microscopy of treated bacteria; assay type: cell-based, Staphylococcus aureus; settings: 0.01 mg/mL for 30 minutes
Method: MRSA was grown overnight in 10 mL of LB broth, sub-cultured (5 mL of overnight culture added to 20 mL LB) and grown for 3 h. MRSA culture (300 μL) were removed, placed into a 1.5 mL tube, and treated with DMSO or EIPE-1 (0.01 mg/mL) for 30 minutes. Each sample was placed on glass coverslips (treated with poly-L-lysine) in a 24 well plate and fixed with 2% glutaraldehyde (in 0.1 M sodium cacodylate buffer) for 2 h at room temperature. After fixation, samples were washed three times with 0.1 M sodium cacodylate buffer. Samples were then fixed with 1% osmium tetroxide in water for 1 h at room temperature and were then washed three times with 0.1 M sodium cacodylate buffer. The samples were then dehydrated with an ethanol series (once with 50%, 70%, 90%, 95% and thrice with 100% ethanol). Samples were dried using hexamethyldisilazane (HAMIDS) and then were mounted on stubs. Finally, samples were coated with gold and palladium using an automated sputter coater. Micrographs were acquired using Quanta 600 Scanning electron microscope.
To visualize potential membrane changes, DMSO and EIPE-1 treated MRSA were prepped and visualized by scanning electron microscopy (FIG. 4B). […] FIG. 4(C) contains bar charts that show the percentage of live and dead MRSA from 20 microscopy fields of view.

[4] = tested on: MRSA; assay: Comparison with Methicillin and Gentamicin, recoverable CFU; assay type: cell-based, Staphylococcus aureus; settings: compared with Methicillin and Gentamicin treatment
Method: To determine CFUs of PA and MRSA after exposure to DMSO, DBI, EIPE-1, Gentamicin or Methicillin, 10-fold serial dilutions were prepared in 96-well micro plates using multichannel pipettes. For each dilution, 25 ptL of each sample was pipetted onto a plate containing agar medium and incubated for 18 h at 37° C. The number of colonies for each dilution were counted and used to back calculate the number of bacteria per mL (CFU/mL) in each original bacterial culture.
EIPE-1 antimicrobial activity against MRSA and PA was compared to that of Methicillin and Gentamicin treatment. Bacterial cultures were grown, normalized and then exposed to either DBI, DMSO (solvent control), EIPE-1, Methicillin or Gentamicin (FIG. 3). […] This is highly significant and novel as methicillin resistance is a huge problem in hospitals and patient treatment worldwide. […] Gram-negative bacteria like PA have an outer membrane covered with lipopolysaccharides that protects the bacteria from antibiotics, dyes, and detergents from penetrating the bacterial cell.

[5] = tested on: S. aureus SFL64; assay: MIC and MBC values (Table 2); assay type: cell-based, Staphylococcus aureus; settings: repeated determinations
[6] = tested on: S. lactis; assay: MIC and MBC values (Table 2); assay type: cell-based; settings: repeated determinations
[7] = tested on: S. epidermidis SK01; assay: MIC and MBC values (Table 2); assay type: cell-based; settings: Staphylococcus epidermidis
[8] = tested on: Cryptococcus neoformans serotype A strain H99; assay: Antifungal MIC assay; assay type: cell-based
Method: Cryptococcus neoformans serotype A strain H99 as well as Candida ablicans strain SC5314, were readily available in the lab. The stock of cells is stored at −80° C. to preserve the fungi and prevent contamination. The cells were grown and maintained in yeast extract-peptone-dextrose (YPD) media (Difco). Cryptococcus or Candida cells were incubated in YPD broth for 18 hrs at 30° C., in a shaking incubator. After the incubation period, they were washed three times in sterile phosphate-buffered saline (PBS) to remove all remaining residue of YPD. The cells were then quantified by using trypan blue dye exclusion in a hemocytometer.
C. neoformans were suspended in RPMI with MOPS, 0.165M, at a concentration of 0.5×10^3 cells/mL. RPMI MOPS media was added to a 96-well plate in a volume of 100 μL to every well, with the exception of column 1. An additional 80 μL of RPMI MOPS was added to column 4 for a total of 180 μL/per well. Amphotericin B or EIPE-1 was added to columns […] with a volume of 20 μL at a concentration of 1 mg/mL. Contents were mixed, then serially diluted 100 μL down the plate until column 11. The last 100 μL was discarded, leaving column 12 blank. C. neoformans was added at a volume of 100 μL per well from column 4 to column 12, so the final volume of the wells was 200 μL. Plates were incubated at 35° C. in a humid incubator for 48 hrs.

Q: For COC(=O)c1cc2c(C#Cc3ccc(OCCC[N+](C)(C)C)cc3)c(OC)c(OC)c(C#Cc3ccc(OCCC[N+](C)(C)C)cc3)c2n1C [EIPE-1, 3,3′-((((5,6-dimethoxy-2-(methoxycarbonyl)-1-methyl-1H-indole-4,7-diyl)bis(ethyne-2,1-diyl))bis(4,1-phenylene))bis(oxy))bis(N,N,N-trimethylpropan-1-aminium) iodide], which zone of inhibition at 10 µg/mL ([1]; 10 μL of 0.01 mg/mL on disc) is on record?
A: 1 mm

Q: What about the zone of inhibition at 100 µg/mL ([1]; 10 μL of 0.1 mg/mL on disc) of the same compound?
A: 1.5 mm

Q: And the zone of inhibition at 1000 µg/mL ([1]; 10 μL of 1.0 mg/mL on disc)?
A: 2 mm

Q: What about the “concentration at which cell cytotoxicity was detected” value [2] of the same compound?
A: 62.5 μg/mL and 66.8 μM

Q: And the “maximal cytotoxicity (LDH release)” value ([2]; 24-hour exposure, concentrations above 62.5 μg/mL (66.8 μM))?
A: 50%

Q: What about the “cytotoxic concentration relative to the MIC against S. aureus” value ([2]; prolonged exposure (24 h)) of the same compound?
A: 4-5 fold

Q: What about the “cell membrane appearance by SEM” value [3] of the same compound?
A: cell membrane damage; also recorded: damaged cell membranes

Q: And the “biocidal activity against MRSA” value [4]?
A: effective in killing MRSA; also recorded: exhibited biocidal activity

Q: What about the “MIC” value ([5]; S. aureus SFL64) of the same compound?
A: 1.000 mg/L

Q: What about the MIC ([5]; Staphylococcus aureus, SFL64, S. aureus SFL64, read-out: MIC) of the same compound?
A: 0.5 mg/L

Q: What about the MBC [6] of the same compound?
A: 2 mg/L

Q: What about the “MBC (μg/mL)” value [6] of the same compound?
A: 1.000 µg/mL

Q: And the MIC [6]?
A: 1 mg/L

Q: And the “MIC (μg/mL)” value [6]?
A: 0.500 µg/mL

Q: What about the MBC [7] of the same compound?
A: 2 mg/L

Q: And the MIC [7]?
A: 1 mg/L

Q: And the “MIC for C. neoformans” value [8]?
A: 3.1 mg/L

Q: And the “Minimum inhibitory concentration (MIC) for the isolate of C. neoformans” value ([8]; 35° C., 48 hrs, RPMI with MOPS)?
A: 1.749 ± 0.1080 µg·mL

Q: And the MIC ([8]; Cryptococcus neoformans, read-out: MIC for C. neoformans)?
A: 1.75 mg/L

Q: And the MIC, C. neoformans ([8]; across seven MIC assays)?
A: 1.67 mg/L
